pEC50: −log10 of the molar value.
Experiments:
[1] = system: HT29 Colorectal Carcinoma Cells (CRC); assay: In vitro anticancer activity (cytotoxicity) of phosphatidyl-THIO conjugates in HT29 cells; format: cell-based; conditions: for pEC50: Homo sapiens, HT 29 CRC cells; for anticancer (cytotoxic) activity, in words: in vitro, comparison among the phosphatidyl conjugates and with the free pharmacophores
Description: The in vitro activity of Phosphatidyl-THIO conjugates were tested in HT29 Colorectal Carcinoma Cells (CRC) (Table 2)
Anticancer activity of the one or more phosphatidyl-THIO conjugate compounds disclosed herein, was evaluated in vitro in various cancer cell lines, according to commonly used procedures for assessment of compounds cytotoxicity, as out lined in the following publications: Mender, I., Gryaznov, S., Dikmen, Z. G., Wright, W. E., & Shay, J. W. (2015). Induction of telomere dysfunction mediated by the telomerase substrate precursor 6-thio-2′-deoxyguanosine. Cancer Discovery, 5, 82-95; Mender et al., (2020). Telomere Stress Potentiates STING-Dependent Anti-tumor Immunity. Cancer Cell, 38, 400-411.

cancer cells = assay: Induction of telomere dysfunction-induced foci (TIF) and micronuclei in cancer cells; format: cell-based; conditions: treatment of cancer cells; data not shown

CCCCCCCC/C=C\CCCCCCCC(=O)OC[C@H](COP(=O)(O)OC[C@H]1O[C@@H](n2cnc3c(=S)[nH]c(N)nc32)C[C@@H]1O)OC(=O)CCCCCCC/C=C\CCCCCCCC [C18:01-6SdG, 5′-(1,2-dioleoyl-sn-glycero-3-phospho)-6-thio-2′-deoxyguanosine]
pEC50 [1]: 6.34 | anticancer (cytotoxic) activity, in words [1]: essentially recovered cytotoxic activity

Nc1nc2c(ncn2[C@H]2C[C@H](O)[C@@H](CO)O2)c(=S)[nH]1 [Compound 6-thio-dG, 6-thio-2′-deoxyguanosine, reference compound]
pEC50 [1]: 6.70

CCCC(=O)OC[C@H](COP(=O)(O)OC[C@H]1O[C@@H](n2cnc3c(=S)[nH]c(N)nc32)C[C@@H]1O)OC(=O)CCC [Compound C4-6SdG, 5′-(1,2-dibutyryl-sn-glycero-3-phospho)-6-thio-2′-deoxyguanosine]
pEC50 [1]: 6.59

CCCCCC(=O)OC[C@H](COP(=O)(O)OC[C@H]1O[C@@H](n2cnc3c(=S)[nH]c(N)nc32)C[C@@H]1O)OC(=O)CCCCC [Compound C6-6SdG, 5′-(1,2-dihexanoyl-sn-glycero-3-phospho)-6-thio-2′-deoxyguanosine]
pEC50 [1]: 7.10 | induction of telomere dysfunction-induced foci (TIF)-positive cells and micronuclei formation (cancer cells): efficient induction

CCCCCC(=O)OC[C@H](COP(=O)(O)OC[C@H]1O[C@@H](n2cnc3c(=S)[nH]c(N)nc32)[C@H](O)[C@@H]1O)OC(=O)CCCCC [Compound C6-6SriboG, 5′-(1,2-dihexanoyl-sn-glycero-3-phospho)-6-thio-guanosine]
pEC50 [1]: 6.70

CCCCCCCC(=O)OC[C@H](COP(=O)(O)OC[C@H]1O[C@@H](n2cnc3c(=S)[nH]c(N)nc32)C[C@@H]1O)OC(=O)CCCCCCC [Compound C8-6SdG, 5′-(1,2-dioctanoyl-sn-glycero-3-phospho)-6-thio-2′-deoxyguanosine]
pEC50 [1]: 6.46

CCCCCCCC(=O)OC[C@H](COP(=O)(O)OC[C@H]1O[C@@H](n2cnc3c(=S)[nH]c(N)nc32)[C@H](O)[C@@H]1O)OC(=O)CCCCCCC [Compound C8-6SriboG, 5′-(1,2-dioctanoyl-sn-glycero-3-phospho)-6-thio-guanosine]
pEC50 [1]: 6.59

CCCCCCCCCCCC(=O)OC[C@H](COP(=O)(O)OC[C@H]1O[C@@H](n2cnc3c(=S)[nH]c(N)nc32)C[C@@H]1O)OC(=O)CCCCCCCCCCC [Compound C12-6SdG, 5′-(1,2-dilauroyl-sn-glycero-3-phospho)-6-thio-2′-deoxyguanosine]
pEC50 [1]: 6.32

CCCCCCCCCCCC(=O)OC[C@H](COP(=O)(O)OC[C@H]1O[C@@H](n2cnc3c(=S)[nH]c(N)nc32)[C@H](O)[C@@H]1O)OC(=O)CCCCCCCCCCC [Compound C12-6SriboG, 5′-(1,2-dilauroyl-sn-glycero-3-phospho)-6-thio-guanosine]
pEC50 [1]: 6.22

CCCCCCCCCCCCCC(=O)OC[C@H](COP(=O)(O)OC[C@H]1O[C@@H](n2cnc3c(=S)[nH]c(N)nc32)C[C@@H]1O)OC(=O)CCCCCCCCCCCCC [Compound C14-6SdG, 5′-(1,2-dimyristoyl-sn-glycero-3-phospho)-6-thio-2′-deoxyguanosine]
pEC50 [1]: 6.31

CCCCCCCCCCCCCCCCCC(=O)OC[C@H](COP(=O)(O)OC[C@H]1O[C@@H](n2cnc3c(=S)[nH]c(N)nc32)C[C@@H]1O)OC(=O)CCCCCCCCCCCCCCCCC [Compound C18-6SdG, 5′-(1,2-distearoyl-sn-glycero-3-phospho)-6-thio-2′-deoxyguanosine]
pEC50 [1]: 4.91 | anticancer (cytotoxic) activity, in words [1]: least active

From patent US20250136633A1, “TELOMERE-TARGETING PHOSPHATIDYL-THIO CONJUGATES” (MAIA BIOTECHNOLOGY, INC., priority 2023, published 2025)
